This note sets out measurements from ChEMBL document CHEMBL1201862, “PubChem BioAssay data set” (2004).

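Compound exposure: 48 hours, 5 concentrations, 96-well plates. GI50 is the concentration that inhibits growth by half.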 Activity calls are given as the source filed them. No stated cut-off is given here; in the data, active = GI50 up to about 1.1 µM and inactive = higher. A value given as a limit tells only on which side of the number the result lay.

Experiment in all cases: inhibition of tumour cell growth, NCI panel, 48 h
The subject of test [1] is SF-268.
Test [2] relates to SW-620.
In test [3] the test system is SN12C.
Test [4] deals with PC-3.
Test [5] relates to HCT-15.
Test [6] relates to NCI-H522.
Test [7] concerns UACC-257.
The subject of test [8] is OVCAR-5.
The subject of test [9] is HCC 2998.
For test [10], the system named is SK-MEL-5.
Test [11] deals with MOLT-4.
Test [12] deals with EKVX.
In test [13] the test system is NCI-H226.
In test [14] the test system is UACC-62.
Test [15] has as its system DU-145.
In test [16] the test system is SK-OV-3.
The test system of test [17] is 786-0.
For test [18], the system named is SR.
In test [19] the test system is SNB-75.
In test [20] the test system is RPMI-8226.

Take `COc1cc(Cc2cnc(N)nc2N)cc(OC)c1OCCCNc1ccc([N+](=O)[O-])cc1`: the GI50 in [1] was 22.9 µM (inactive); in [2], 15.1 µM (inactive); in [3], 16.3 µM (inactive); in test [4], 10.1 µM (inactive); in test [5] it was 14.6 µM; in test [6], 13 µM (inactive). Further, the GI50 in [7] is 11.9 µM (inactive); in test [8], 19 µM (inactive); in test [9], 14.5 µM (inactive); in test [10], 5.79 µM (inactive); in test [11], 2.72 µM (inactive); in test [12], 15.3 µM (inactive). For the same compound, the GI50 is 13.4 µM (inactive) in test [13]; 12.9 µM (inactive) in test [14]; 15.8 µM (inactive) in test [15]; 31.5 µM (inactive) in test [16]; 12.4 µM (inactive) in test [17]; 4.68 µM (inactive) in test [18]. In test [19], the GI50 is 16.2 µM (inactive).

Consider `C1=C[C@@H]2c3ccc4cnccc4c3NC[C@@H]2C1`, for which the GI50 was > 100 µM (inactive) in [1]; > 100 µM (inactive) in test [2]; > 100 µM (inactive) in test [3]; > 100 µM (inactive) in [4]; above 100 µM in [5]; > 100 µM (inactive) in test [7]. In addition, the GI50 was > 100 µM (inactive) in test [8]; > 100 µM (inactive) in test [9]; > 100 µM (inactive) in test [10]; > 100 µM (inactive) in test [11]; 16.8 µM (inactive) in test [12]; > 100 µM (inactive) in [13]. For the same compound, the GI50 in test [20] was > 100 µM (inactive); in [14], 58.2 µM (inactive); in test [15] it was > 100 µM (inactive); in test [16] it was > 100 µM (inactive); in test [17], > 100 µM (inactive); in [18], > 100 µM (inactive). For the same compound, the GI50 in test [19] is > 100 µM (inactive).

As for `O=C(c1cc(Cl)ccc1Cl)N1CCN(C(=O)c2cc(Cl)ccc2Cl)CC1`, the GI50 in test [1] is > 100 µM (inactive); in test [2] it was > 100 µM (inactive); in test [3], > 100 µM (inactive); in [4] it was > 100 µM (inactive); in test [5] it was above 100 µM; in test [6] it was 34.4 µM (inactive). The GI50 in test [7] was > 100 µM (inactive); in [8] it was > 100 µM (inactive); in test [9], > 100 µM (inactive); in [10], 55.6 µM (inactive); in [11], > 100 µM (inactive); in test [12], > 100 µM (inactive). Moreover, the GI50 is > 100 µM (inactive) in test [13]; > 100 µM (inactive) in test [20]; > 100 µM (inactive) in [15]; 91.2 µM (inactive) in [17]; > 100 µM (inactive) in test [18]; 33.1 µM (inactive) in test [19].

In the case of `O=C1CSC2(CC(/C=C/c3ccccc3[N+](=O)[O-])=NN2c2cccc(S(=O)(=O)O)c2)N1c1nc2ccccc2s1` (stereo not given), the GI50 is 16.8 µM (inactive) in test [1]; 22.6 µM (inactive) in test [2]; 20.3 µM (inactive) in test [3]; 15.3 µM (inactive) in [4]; 17 µM in [5]; 11.6 µM (inactive) in test [6]. In addition, the GI50 in test [7] was 37.2 µM (inactive); in test [8], 19.3 µM (inactive); in test [9] it was 30.3 µM (inactive); in test [10], 25.4 µM (inactive); in [11], 15.7 µM (inactive); in test [12], 32.3 µM (inactive). Besides, the GI50 in test [13] is 16.8 µM (inactive); in test [20], 16.8 µM (inactive); in test [14] it was 13.6 µM (inactive); in test [15], 12.5 µM (inactive); in test [17] it was 12.3 µM (inactive); in [18], 20.2 µM (inactive). In addition, the GI50 in [19] was 15.3 µM (inactive).
